A short description of the series: In vitro toxicity assay: MTT proliferation assay. The format is cell-based. The following applies: 3 day incubation. From the text:
FIGS. 3A-3F show the in vitro reporter and toxicity assays.
A general note: Formazan colour is commonly taken as a measure of viable cells.

Take `NCCCC[C@H](NCCO)C(=O)O` [hydroxyethyl lysine]: the Cellular viability entry was “not affected”.
